Here are results for one compound from article PMC7369637, “Inhibition of Resistance-Refractory P. falciparum Kinase PKG Delivers Prophylactic, Blood Stage, and Transmission-Blocking Antiplasmodial Activity” (Cell Chemical Biology, 2020).

Experiment [1] deals with Dd2-B2 and ed. Dd2-B2 TKL3KO parasites. Description: In vitro selections for MMV030084 resistance. Type of experiment: cell-based, Plasmodium falciparum. The settings on record: 1 × 10^9 Dd2-B2 TKL3KO parasites, 1,100 nM. On the procedure: (§1) The resulting MMV030084-resistant parasites were cloned by limiting dilution ([Baker et al., 2017]) to obtain genetically homogenous cultures for further phenotyping and whole-genome sequencing. A second round of […]. […] Drug susceptibility of resistant lines was assessed using a 72 h ABS assay as described above, and a Mann Whitney U test was applied to assess statistically significant differences.

Experiment [2] concerns NF54 CDPK1T145M mutant line. Description: ABS susceptibility, CDPK1 gatekeeper mutant line. Particulars: Plasmodium falciparum, NF54, read-out: Mean IC50. Type of experiment: cell-based. On the procedure:
(§2) Synchronicity was achieved using three rounds of sorbitol treatment on early rings, spaced 48 h apart, followed by magnetic purification of segmented schizonts following the final sorbitol treatment. Parasites were highly synchronous to within a 3 h window of development. Assays were repeated on at least three independent occasions (each with technical duplicates) and statistical significance was assessed using Mann Whitney U tests.

A further experiment deals with female gamete formation. The settings on record: ref Miguel-Blanco et al., 2017; cited from earlier work.
Experiment [3] has as its system phosphoproteome of Dd2-B2 Pf schizonts. Description: Phosphoproteomics of Dd2-B2 schizonts exposed to 1200 nM MMV030084 for 3 h. Particulars: 1,200 nM, vs untreated. The experiment is classed as cell-based, Plasmodium falciparum.
Protocol: Red blood cells were lysed by 0.1% saponin in washing buffer (20 mM β-glycerophosphate, 1 tablet of cOmplete protease inhibitor cocktail (Roche), and 1 tablet of PhosSTOP phosphatase inhibitor (Roche) per 10 ml PBS). Parasites were subsequently washed three times in washing buffer. Parasite pellets were stored at -80°C until all samples from two independently repeated exposure experiments were collected. Proteins were extracted from schizont pellets by sonication and lysis in Tris-EDTA buffer (10 mM Tris-HCl, 5 mM EDTA, 20 mM ß-glycerolphosphate; pH 7.4, 1% NP-40, 2% CHAPS) followed by reduction of disulfide bonds and alkylation. Samples were digested with trypsin at a ratio of 1:15 (w/w) trypsin and proteins concentrated using S-trap columns (ProtiFi) for 1 h at 47°C. For tandem mass tag (TMT) labelling, digested samples were incubated with TMTsixplex reagents (Thermo Scientific). All labeled samples were pooled together, loaded onto an anion-exchange column, and fractionated on an AKTA purifier (GE Healthcare). The fractions were concentrated and phosphopeptides were enriched using titanium dioxide (TiO2) and immobilized metal affinity chromatography (IMAC). […] We also analyzed the peptide sequences for patterns that conformed to the previously established PfPKG consensus motif K/RR/KxpS/pT and the PfPKA consensus motif K/RxxpS/pT ([Francis et al., 2010]).
The subject of experiment [4] is Dd2-B2 TKL3KO parasites with PP1 H237D/V249L or URP E20* mutations. Description: 72-h ABS assay, lines pulse-selected from ed. Dd2-B2 TKL3KO. The experiment is classed as cell-based. Particulars: Plasmodium falciparum, parent ed. Dd2-B2 TKL3KO. How it is done: as §2, §1
For experiment [5], the system named is P. berghei ANKA liver stages. Description: Liver stage susceptibility, luciferase-based assay (PbLuc sporozoites in HepG2). Type of experiment: cell-based. Particulars: Plasmodium berghei. On the procedure: P. berghei ANKA infections were maintained in BALB/c female mice (The Jackson Laboratory) infected via intraperitoneal injection of 2×10^7 blood stage parasites. Infected mice were provided water ad libitum and housed in standard cages in an animal facility room maintained at 22°C and 50-70% relative humidity. Anopheles stephensi mosquitoes were housed in an insectary maintained at 27°C, 80% humidity and a 12:12 light:dark schedule. […] 24 h before infection, 384-well plates (Greiner Bio) were seeded with 1x10^4 HepG2-A16-CD81^EGFP cells in 30 μL of assay medium (DMEM without Phenol Red (Life Technologies, CA), 5% FBS and 5x Pen-Strep Glutamine (Life Technologies, CA)). Luciferase-expressing Pb (PbLuc) sporozoites were freshly obtained by dissecting salivary glands of infected Anopheles stephensi mosquitoes and 5x10^3 sporozoites in 30 μL were added to each well. Plates were centrifuged for 5 min at 330g and incubated for 2 h at 37°C and 5% CO2. Unbound sporozoites were then removed by centrifugation and washing and 30 μL of fresh medium was added. […] Luminescence was measured using an Envision Multilabel Reader (PerkinElmer) to assess parasite growth as a function of compound concentrations.

For the next experiment, the system named is Pf Dd2-B2 ABS parasites. Description: 72-h asexual blood stage (ABS) growth inhibition assay, Dd2-B2. The experiment is classed as cell-based, Plasmodium falciparum. How it is done:
as §2

The subject of experiment [6] is mature (stage V) NF54 gametocytes. Description: Gametocyte susceptibility, saponin lysis-based MitoTracker high-content imaging assay. The experiment is classed as cell-based. Particulars: Plasmodium falciparum, saponin lysis-based sexual stage assay, 72 h. On the procedure: This was determined using two separate assays. The first involved MitoTracker staining and high-content imaging. Mature (stage V) gametocytes were generated from NF54 ABS cultures as described elsewhere ([Plouffe et al., 2016]). Briefly, asexual parasites were cultured at 5% hematocrit in O^+ human erythrocytes in serum-containing complete media (RPMI 1640 (Life Technologies), 0.05 mg/ml gentamicin (Life Technologies), 0.014 mg/ml hypoxanthine (Sigma), 38.4 mM HEPES (Sigma), 0.2% (w/v) sodium bicarbonate (Sigma), D-glucose 0.2% (w/v) (Sigma), 3.4 mM sodium hydroxide (Sigma), 4.3% (v/v) heat-inactivated human serum (O^+, Interstate Blood bank), and 0.2% (w/v) AlbuMAX® II (Life Technologies)). […] The second assay assessed gametocyte susceptibility using a luciferase-based assay with 3D7elo1-pfs16-CBG99 transgenic parasites ([Cevenini et al., 2014]). […] Cell viability was then evaluated by adding a non-lysing formulation of 0.5 mM D-Luciferin substrate and measuring luciferase activity for 0.5 s on a Varioskan™ Flash Multimode Reader (Thermo Scientific). The percent of viability was calculated as a function of drug concentration and IC50 values were derived by non-linear regression analysis and curve fitting (using GraphPad Prism 6.0).

Like-named read-outs stand apart in the source and are kept apart here.

The IC50 is the concentration that inhibits the measured activity by half. In the case of `CC(C)(CN)c1nc(-c2ccc(Cl)c(O)c2)c(-c2ccncc2)[nH]1` [MMV030084], the “Parasite recrudescence under continuous exposure” value in experiment [1] is recorded as “did not result in parasite recrudescence”. For the same compound, the IC50 in experiment [2] is 90 nM; in experiment [4] (DD2, Line sel. Dd2-B2 TKL3KO + PP1H237D) it was 621 nM; in experiment [4] (DD2, Line sel. Dd2-B2 TKL3KO + PP1V249L), 549 nM; in experiment [4] (DD2, Line sel. Dd2-B2 TKL3KO + URPE20*) it was 819 nM; in experiment [5] (HepG2, compound added 2 h after infection, read-out: IC50, liver stage, post-invasion exposure) it was over 10000 nM; in experiment [5] (luciferase-expressing Pb parasites, host HepG2 liver cells, pre-invasion exposure, read-out: IC50, liver stage), 199 nM. Besides, the IC50 in the experiment on Pf Dd2-B2 ABS parasites (Plasmodium falciparum, DD2, 72 h, read-out: Mean IC50, 72 h ABS activity, Dd2-B2 wild-type, 72 h) was 120 nM; with Pf Dd2-B2 ABS parasites (read-out: Mean IC50, 72 h ABS activity, Dd2-B2 wild-type, 72 h), 120 nM; in experiment [6], over 40000 nM. Further, the “Inhibition of female gamete formation” value in the experiment with female gamete formation is reported as “inhibitors of female gamete formation”. In experiment [3], the “Number of proteins with increased phosphorylation levels” value is reported as 15. Further, the “Number of proteins with phosphorylation status reduced by more than 35%” value in experiment [3] came to 16.
